Experimental data reported in US5023237A, “Methods and compositions for healing ulcers” (priority 1989, dated 1991).
“Also recorded” adds a separate entry of the source. Peptide text beside a SMILES is read from it.

Assays:
[1] = system: Stomach ulcers induced by the Shay procedure; assay: Shay model, stomach ulcer formation and acid secretion (Example 8); assay type: in vivo, rat; settings: for Ulcer formation and stomach acid secretion, in words: Shay model, compared with saline controls; for pH: stomach contents after 24 hours; for % WITH ULCERS: positive if a single lesion is noted
Description: Stomach ulcers were induced in rats by the Shay procedure. Briefly, the passage between the stomach and the intestine in the rat is tied off, thereby causing a buildup of stomach acid. Ulcer formation is visible after 18-24 hours of ligation.
For treatment, the rats received either GHL-Cu or a derivative in 0.25 ml of saline into the stomach via a gastric feeding tube immediately after the surgical procedure. Control rats received saline only. After 24 hours, the rats were sacrificed, the stomachs were removed and photographed. The acidity of the stomach contents was also measured.
In the experiments reported here, the rats were treated with various doses of glycyl-L-histidyl-L-lysine (GHL), GHL-Cu (2:1), or GHL-Cu (1:1) complex of various analogs of GHL as the 1:1 copper complexes.
Stomach ulcers were induced in groups of rats as described above. The animals were dosed with increasing amounts of either GHL:Cu at a molar ration of 2 moles of GHL to 1 mole of Cu (2:1), equimolar complex (1:1), and GHL without copper. After 24 hours, the stomachs were removed, the pH was determined and the percent of stomachs with visible ulcers was determined.
The presence of ulcers is scored positive if a single lesion is noted, regardless of the size.

[2] = system: gastric ulcers induced by 95% ethanol; assay: Prevention of ethanol-induced gastric ulcers (Example 10); assay type: in vivo, SD rats; settings: for Prevention of ethanol-caused gastric irritation and ulceration, in words: pretreatment, 95% ethanol ingestion; for Ulceration after ethanol, in words: stomachs inspected one hour after ethanol
Description: (§1) A series of ethanol induced gastric ulcer studies was conducted. Ulcers were induced by oral administration of 95% ethyl alcohol (Scan. J. Gastroenterol 23:665-671 (1988)). The studies were conducted to determine both the preventative and healing effects of glycl-L-histidyl-L-lysine:Cu.
A dose of 2.0 ml/kg 95% ethanol was chosen to induce gastric ulcers in rats. Prior to the ethanol ingestion, three groups of rats were pretreated with 0.5 ml of 2% glycyl-L-histidyl-L-lysine:Cu (1:1) as follows:
Group 1: 2 hours prior to Ethanol dosing
Group 2: 4 hours prior to Ethanol dosing
Group 3: 6 hours prior to Ethanol dosing
In addition, 4 rats served as controls with no pretreatment. One hour following ethanol administration, the stomachs were removed and inspected for ulceration as described above.

[3] = system: ulcers induced by 95% ethanol; assay: Healing of ethanol-induced gastric ulcers (Example 10); assay type: in vivo, rats; settings: for Healing of ethanol-induced ulcers, in words: drinking water treatment, compared to controls; for # animals with rating 0 (no indication of ulceration) / # animals with rating 1 (some irritation) / # animals with rating 2 (small ulcers present) / # animals with rating 3 (large ulcers present): day 7
Description: as §1
The ability of glycyl-L-histidyl-L-lysine:Cu (2:1) to heal ulcers induced by 95% ethanol has also been examined. In this study, ulcers were induced by administration of 4 ml/kg of 95% ethanol. The rats were then treated with glycyl-L-histidyl-L-lysine:Cu (2:1) in the drinking water at a dose of 0.01 mg/ml and 0.1 mg/ml (total dose per day of 1.6 mg/kg and 16 mg/kg, respectively). The rats were terminated at day 7 after ulcer induction and the stomachs examined for the presence of ulcers.
(§2) The following rating scale was used to express severity of ulceration:
(§3) 0--no indication of ulceration

[4] = system: Duodenal ulcers induced by cysteamine; assay: Healing of cysteamine-induced duodenal ulcers (Example 9); assay type: in vivo, S.D. rats; settings: for Healing of duodenal ulcers, in words: drinking water treatment, compared to controls
Description: Cysteamine will induce chronic duodenal ulcers in rats when injected subcutaneously (Olsen, P. S., Poulsen, S. S., Therkelsen, K., and Nexo, E., Oral administration of synthetic human urogastrone promotes healing of chronic duodenal ulcers in rats, Gastroenterology 90:911-917 (1986)).
Duodenal ulcers were induced in a group of 40 S.D. rats (male and female) by subcutaneous injections of cysteamine (350 mg/kg and 175 mg/kg) 6 hours apart. Saline was injected subcutaneously (5 cc) to provide fluid. Surviving animals (n=34) were followed for 7 days then laparotomies were performed. External examinations of the duodenum were made to determine extent of adhesion of the liver or other surrounding tissues. Animals with duodenal ulcers were randomized (by sex) to receive GHL-Cu (2:1) in distilled water, or plain distilled water. Animals were maintained for 25 days after which they were sedated, stomachs and duodenums removed and dissected for internal inspection. The results were obtained and recorded, specimens immersed in 10% buffered formalin for analysis with a stereomicroscope.
as §2, §3
1--mild ulceration, no extension through duodenum
2--moderate ulceration, fixation of surrounding tissue
3--extreme ulceration through duodenum
On the day of laparotomy, 28 rats ([…]) were determined to have significant adhesion of the duodenum to surrounding tissues. These animals were randomized by sex to either the GHL-Cu or control group. Following 25 days of drinking water treatment (total dose per day of 0.6 mg/kg), rats were sedated and prepped for dissection. The stomach and duodenum were removed, notations made as to extent of residual adhesions. Internal inspection of the duodenum was made prior to immersion of specimen in 10% formalin. Results at the time of gross inspection indicated 11 out of 14 control animals had significant residual ulcerations extending to the liver primarily.

[5] = system: Stomach ulcers induced by the Shay procedure (buildup of stomach acid); assay: Shay model, stomach acidity and mucous secretion (Example 7); assay type: in vivo, rat; set-up: key to Mucous Production: 0 represented substantially no mucous observed; ++++ represented a very heavy mucous secretion; settings: rats, after 24 hours; for Stomach acidity pH ± standard deviation: 10 mg in 0.25 ml saline intubated into the stomach
Description: Stomach ulcers were induced in rates by the Shay procedure. Briefly stated, the passage between the stomach and the intestine in the rat is tied off, thereby causing a buildup of stomach acid, resulting in ulceration. For treatment, the rats received 10 mg of GHL or GHL-Cu or a derivative thereof in 0.25 ml saline intubated into the stomach. Control rats received saline only. After 24 hours, the stomachs were photographed and the stomach acidity determined.
The results of the experiments are shown in Table 1, which depicts the inhibition of stomach acid accumulation and stimulation of cytoprotective mucous secretion in the rats. The mucous production was visually rated from 0 to ++++, where 0 represented substantially no mucous observed and ++++ represented a very heavy mucous secretion.

[6] = GHL-Cu (2:1) 0.01 mg/ml in drinking water (1.6 mg/kg per day)
[7] = GHL-Cu (2:1) 0.1 mg/ml in drinking water (16 mg/kg per day)
[8] = microscopic examination, 25 days drinking water, 0.6 mg/kg per day

Molecule | Ulcer formation and stomach acid secretion, in words [1] | pH ([1]; dose 3 mg into stomach) | % WITH ULCERS ([1]; dose 3 mg, after 24 hours) | Prevention of ethanol-caused gastric irritation and ulceration, in words [2] | Healing of ethanol-induced ulcers, in words [3] | Healing of duodenal ulcers, in words [4] | Stomach acidity pH ± standard deviation [5] | pH ([1]; dose 10 mg into stomach) | % WITH ULCERS ([1]; dose 10 mg, after 24 hours) | further results
L-lysyl-L-histidyl-glycine:copper(II) [LGH-Cu] | decreased stomach acid secretion and resulted in fewer visible lesions | 3.61 ± 1.00 pH | 11% | prevent gastric irritation and ulceration | accelerate the healing of ulcers | accelerate the healing of established duodenal ulcers |  |  |  | 
NCCCC[C@H](NC(=O)[C@H](Cc1c[nH]cn1)NC(=O)CN)C(=O)O [GHL, glycyl-L-histidyl-L-lysine] (H-Gly-His-Lys-OH) |  |  |  |  |  |  | 3.26 ± 0.47 pH | 2.84 ± 0.90 pH | 40% | 
glycyl-L-histidyl-L-lysine:copper(II) [GHL-Cu] | decreased stomach acid secretion and resulted in fewer visible lesions |  |  | prevent gastric irritation and ulceration | majority of the animals had no demonstrable ulcers; also recorded: accelerate the healing of ulcers | accelerate the healing of established duodenal ulcers | 6.94 ± 0.25 pH |  |  | Mucous Production ([5]; 10 mg in 0.25 ml saline, visually rated 0 to ++++): ++++; # animals with rating 0 (no indication of ulceration) [3, 6]: 5 animals; # animals with rating 1 (some irritation) [3, 6]: 2 animals; # animals with rating 2 (small ulcers present) [3, 6]: 0 animals; # animals with rating 3 (large ulcers present) [3, 6]: 0 animals; # animals with rating 0 (no indication of ulceration) [3, 7]: 5 animals; # animals with rating 1 (some irritation) [3, 7]: 1 animals; # animals with rating 2 (small ulcers present) [3, 7]: 1 animals; # animals with rating 3 (large ulcers present) [3, 7]: 0 animals; Animals with residual ulcerations at gross inspection ([4]; GHL-Cu (2:1) in drinking water 25 days, 0.6 mg/kg per day, control 11 out of 14): 7 out of 14
glycyl-L-histidyl-L-lysine n-octyl ester:copper(II) [GHL octyl ester:Cu] |  | 3.50 ± 1.18 pH | 25% |  |  |  |  | 6.18 ± 0.98 pH | 0% | 
glycyl-L-histidyl-L-lysine:Cu (2:1) [GHL-Cu(2:1)] | inhibited ulcer formation and raised the pH of the stomach contents in a dose responsive manner | 2.72 ± 1.03 pH | 50% |  |  | the severity was reduced |  | 6.38 ± 1.01 pH | 11% | # animals with rating 0 (no indication of ulceration) [4, 8]: 4 animals; # animals with rating 1 (mild ulceration, no extension through duodenum) [4, 8]: 5 animals; # animals with rating 2 (moderate ulceration, fixation of surrounding tissue) [4, 8]: 3 animals; # animals with rating 3 (extreme ulceration through duodenum) [4, 8]: 2 animals
glycyl-L-histidyl-L-lysine:Cu (1:1) [GHL-Cu(1:1)] | inhibited ulcer formation and raised the pH of the stomach contents in a dose responsive manner | 4.85 ± 1.17 pH | 0% |  |  |  |  | 7.23 ± 0.64 pH | 0% | Lesion formation, in words (photographs, FIG. 1) ([1]; 10 mg, after 24 hours): complete inhibition of lesion formation; pH ([1]; dose 1 mg into stomach): 3.80 ± 1.34 pH; % WITH ULCERS ([1]; dose 1 mg, after 24 hours): 33%; Ulceration after ethanol, in words ([2]; 0.5 ml of 2% solution 2 hours prior to 2.0 ml/kg 95% ethanol): No evidence of ulceration; also recorded: totally blocking damage; Ulceration after ethanol, in words ([2]; 0.5 ml of 2% solution 4 hours prior to 2.0 ml/kg 95% ethanol): Significantly better than controls, however, small ulcers were visible; Ulceration after ethanol, in words ([2]; 0.5 ml of 2% solution 6 hours prior to 2.0 ml/kg 95% ethanol): Mixed results
